The results in this text go back to patent US10376577B2, “Refined product obtained from rice hull and preparation process and use thereof” (China Medical University, priority 2014, dated 2019).

This series concerns CT26 cells. As to the kind of experiment: Synergistic anticancer effect of refined product and 5-FU on colon carcinoma cells. The format is in vivo, mouse. The note with it: BALB/c mice with subcutaneous CT26, end of 3rd week, treatments per Table 8, mean ± S.D. An excerpt:
The male BALB/c mice were randomly divided into the following groups (n=8 for each group): a normal control group, a pathological control group, a 5-FU group, and a synergy group. 1×10^6 CT26 cells were subcutaneously injected into the leg of each mouse in the pathological control group, the 5-FU group, and the synergy group. The mice in the normal control group received no CT26 cells.
After the injection of CT26 cells, the mice in the 5-FU group, the synergy group, and the pathological control group were subjected to the treatments shown in Table 8 until the end of the 3rd week after the injection of CT26 cells. The mice in the normal control group received no treatment.
At the end of the 3rd week after the injection of CT26 cells, the mice in each group were anesthetized using CO2, and blood was collected from the celiac vein. The blood collected was subjected to total white blood cell counting using an automated hematology analyzer (Sysmex, KX-21 N). Besides, tumors were collected and weighted.

Turning to `O=c1[nH]cc(F)c(=O)[nH]1` [5-FU, 5-fluorouracil], the Tumor weight (pathological control 4.10 ± 0.92) turned out to be 3.19 ± 1.47. In addition, the “Number of total white blood cells” value (pathological control 6.59 ± 1.46) was found to be 4.46 ± 0.77.
